Measurements from the NIST ThermoML archive (doi:10.1021/je300557g).
Numbers after ± are expanded uncertainties.

Assay: xn = mol fraction of the nth substance listed
Conditions: 101 kPa, Liquid; for mass density: Vibrating tube method

CCCC[n+]1cccc(C)c1.F[B-](F)(F)F [1-butyl-3-methylpyridinium tetrafluoroborate] + CO
Conditions | kinematic viscosity, 293.15 K [m2/s] | kinematic viscosity, 303.15 K [m2/s] | kinematic viscosity, 313.15 K [m2/s] | kinematic viscosity, 323.15 K [m2/s] | mass density, 293.15 K [kg/m3] | mass density, 303.15 K [kg/m3] | mass density, 313.15 K [kg/m3] | mass density, 323.15 K [kg/m3]
x1 = 0.0481 | 1.03e-06 ± 1.6e-08 | 8.95e-07 ± 1.4e-08 | 7.88e-07 ± 1.2e-08 | 7e-07 ± 1.1e-08 | 876.92 ± 0.33 | 868.11 ± 0.33 | 858.9 ± 0.33 | 850 ± 0.34
x1 = 0.0975 | 1.45e-06 ± 2.2e-08 | 1.22e-06 ± 1.8e-08 | 1.06e-06 ± 1.6e-08 | 9.17e-07 ± 1.4e-08 | 937.91 ± 0.28 | 929.46 ± 0.28 | 920.91 ± 0.28 | 912.45 ± 0.3
x1 = 0.1973 | 2.72e-06 ± 3.9e-08 | 2.2e-06 ± 3.2e-08 | 1.88e-06 ± 2.8e-08 | 1.61e-06 ± 2.4e-08 | 1017.57 ± 0.24 | 1009.42 ± 0.25 | 1001.41 ± 0.25 | 993.31 ± 0.26
x1 = 0.3001 | 4.45e-06 ± 6.4e-08 | 3.44e-06 ± 5e-08 | 3.04e-06 ± 4.4e-08 | 2.54e-06 ± 3.7e-08 | 1067.85 ± 0.24 | 1059.92 ± 0.24 | 1052.02 ± 0.24 | 1044.13 ± 0.24
x1 = 0.4013 | 7.03e-06 ± 9.7e-08 | 5.64e-06 ± 8e-08 | 4.73e-06 ± 6.8e-08 | 3.95e-06 ± 5.7e-08 | 1101.07 ± 0.24 | 1093.38 ± 0.24 | 1085.61 ± 0.24 | 1077.93 ± 0.24
x1 = 0.4969 | 1.2e-05 ± 1.6e-07 | 9.04e-06 ± 1.2e-07 | 7.23e-06 ± 1e-07 | 5.68e-06 ± 8.1e-08 | 1123.81 ± 0.26 | 1116.36 ± 0.26 | 1108.79 ± 0.25 | 1101.32 ± 0.25
x1 = 0.5985 | 1.98e-05 ± 2.6e-07 | 1.45e-05 ± 1.9e-07 | 1.08e-05 ± 1.5e-07 | 8.38e-06 ± 1.2e-07 | 1142.18 ± 0.28 | 1134.95 ± 0.27 | 1127.63 ± 0.27 | 1120.38 ± 0.27
x1 = 0.6972 | 3.36e-05 ± 4.4e-07 | 2.31e-05 ± 3.1e-07 | 1.69e-05 ± 2.3e-07 | 1.27e-05 ± 1.7e-07 | 1156.2 ± 0.3 | 1149.14 ± 0.3 | 1142.07 ± 0.3 | 1134.99 ± 0.29
x1 = 0.7942 | 5.92e-05 ± 7.2e-07 | 3.53e-05 ± 4.7e-07 | 2.51e-05 ± 3.3e-07 | 1.76e-05 ± 2.4e-07 | 1167.41 ± 0.33 | 1160.48 ± 0.33 | 1153.59 ± 0.32 | 1146.64 ± 0.32
x1 = 0.8427 | 7.8e-05 ± 1.4e-06 | 4.59e-05 ± 6.1e-07 | 3.12e-05 ± 4.1e-07 | 2.13e-05 ± 2.9e-07 | 1172.3 ± 0.34 | 1165.41 ± 0.34 | 1158.59 ± 0.34 | 1151.69 ± 0.33
x1 = 0.8978 | 0.00011 ± 3e-06 | 6.28e-05 ± 8.3e-07 | 4.03e-05 ± 5.4e-07 | 2.67e-05 ± 3.6e-07 | 1177.37 ± 0.36 | 1170.53 ± 0.36 | 1163.75 ± 0.36 | 1156.91 ± 0.35
x1 = 0.9689 | 0.000171 ± 7.2e-06 | 9.3e-05 ± 2.1e-06 | 5.65e-05 ± 6.7e-07 | 3.61e-05 ± 4.9e-07 | 1183.27 ± 0.39 | 1176.47 ± 0.39 | 1169.72 ± 0.38 | 1162.95 ± 0.38
